In patent US20050169883A1, “Preblocking with non-ha gags increases effectiveness of ha conjugated anticancer agents” (priority 2002, published 2005):

Legend:
[1] = system: TSU cells; assay: HA degradation assay; type: cell-based, human; settings: 48 hours, KM201 200 μg/ml or chloroquine 0.1 mM
Protocol: (§1) The assay was carried out as described (CBU) with some modification. […] In some wells, the media contained 200 μg/ml of KM201 (a neutralization antibody against CD44) or 0.1 mM of chloroquine (an inhibitor of lysosomal enzymes). The media were collected, which contained some of the released and degraded ^3H-HA. […] The media and the supernatant from cells were centrifuged with Centricon 30 (Amicon, Danvers, Mass.). The un-degraded high MW ^3H-HA was retained in the upper chamber.
(§2) This mixture was then separated by filter membrane with MW cut of 30,000 Dalton.

[2] = system: 4T1 cells; assay: HA degradation assay; type: cell-based, mouse
Protocol: as §1, §2
CD44 was examined to determine if it was expressed by 4T1 cells and if it could interact with HA. First, CD44 was detected by Western blotting. […] The binding was specific as it could be inhibited by excess of cold HA (FIG. 14B).

[3] = system: HA binding sites in the major organs; assay: Chondroitin sulfate pretreatment, organ and tumor up-take of 3H-HA; type: in vivo, mouse
Protocol: The tumors and organs were collected, weighted, and homogenized with ultrasound to make tissue homogenates. The protein concentration was normalized to 0.1 mg/ml. Then, 300 μl of tissue homogenates were mixed with 2.5 ml of scintillation solution and counted for the radioactivity. […] Twenty-four hours later, the mice were sacrificed and the homogenates of tumors and organs were counted for the radioactivity.
This approach did reduce the HA taken up by liver and increased the amount of HA accumulated in tumors.
One day later, the tumors and organs were collected, weighed, homogenized with ultrasound to make tissue lysate at a protein concentration of 0.1 mg/ml. Then, 300 μl of tissue lysate were mixed with 2.5 ml of scintillation solution and counted for the radioactivity.

[4] = system: 4T1 mouse breast cancer cells; assay: In vivo anti-tumor effect, 4T1 tumor model in BABL/c mice; settings: 4 mg/kg Taxol or equivalent, i.p. every other day; versus vehicle and Taxol alone
Protocol: The 4T1 mouse breast cancer cells (10^6/site) were subcutaneously injected into either BABL/c mice and allowed to grow for 2 days for the tumor to be established. […] The injection was carried out every other day for two to four weeks. The tumor sizes were measured twice a week. At the end of experiment, the mice were sacrificed and the tumor were harvested, photographed and weighted.

[5] = system: 4T1 breast cancer cells; assay: Spontaneous lymph node metastasis of 4T1 cells injected into foot pad; type: in vivo, mouse; settings: for Weight of lymph node: s.c. three times a week for three weeks, 4 mg/kg Taxol equivalent
Protocol: The 4T1 breast cancer cells were injected into foot pat of syngenic BABL/c mice. […] About 0.2 ml of above agents were administrated by subcutaneous (s.c.) injection at the middle of leg three times a week, from where HA-drug could be drained/absorbed into popliteal and inguinal lymph path, in which the spontaneous metastases were expected to take place.
The lymph nodes were carefully dissected out from surrounding fat, measured for the weights and processed for pathology.

[6] = system: 4T1 tumors; assay: Chondroitin sulfate blocking study, survival of mice bearing 4T1 tumors; type: in vivo, mouse; settings: experiment period of 33 days; ten i.p. injections every other day
Protocol: This procedure was carried out every other day for 20 days, and mice received a total of ten injections. The mice were recorded for their survival days and the survival rate was calculated.
This procedure was carried out every other day for 20 days, and mice received a total of ten injections. The mice were recorded for their survival during a 33 day experimental period s and the survival rate was calculated.

[7] = system: human prostate cancer cell-line DU-145; assay: In vitro cytotoxicity against prostate cancer cell line; type: cell-based; settings: DU-145 cells, DOX equivalent
Excerpt: The in vitro cytotoxicity of HPMA-HA-DOX with 17% and 36% HA loading against cultured prostate cancer cell line DU-145 was examined. FIG. 8 depicts the in vitro cytotoxicity results of the HPMA-HA-DOX bioconjugates. The cytotoxicity of targeted HPMA-HA-DOX bioconjugates were dramatically higher than non-targeted HPMA-DOX conjugate (Table 2), and 8- to 12-fold higher than the free DOX drug against this prostate cancer cell-line.

[8] = system: HCT-116 human colon cancer cells; assay: In vitro cytotoxicity, MTT dye uptake; type: cell-based; settings: 72 h, HCT-116 cells, 3 days incubation, DOX equivalent
Protocol: (§3) HBL-100, a human breast cancer cell-line, was maintained in culture in high glucose D-MEM (Dulbecco's Modified Eagle Medium), which was supplemented with 10% γ-irradiated fetal bovine serum (FBS) and 1% sodium pyruvate; SK-OV-3, a human ovarian cancer cell-line was cultured in D-MEM/F12+10% FBS; HCT-116, a colon tumor cell-line, was maintained in culture in α-MEM (Minimal Essential Medium, Eagle)+10% FBS. 4T1 mouse breast cancer cells and TSU human bladder cancer cells were cultured with 10% calf serum-90% Dulbecco's modified Eagle's medium (DMEM) at 37° C. in 5% CO2 incubator.
(§4) All ^1H NMR spectral data were obtained using an NR-200 FT-NMR spectrometer at 200 MHz (IBM Instruments Inc.). UV-Vis spectra were recorded on a Hewlett Packard 8453 UV-Vis diode array spectrophotometer (Palo Alto, Calif.). HA was characterized by gel permeation chromatography (GPC) was on the following system: Waters 515 HPLC pump, Waters 410 differential refractometer, and Waters™ 486 tunable absorbance detector, Waters Ultrahydrogel 250 and 2000 columns (7.8 mm ID×30 cm) (Milford, Mass.) were used for GPC analysis, the eluent was 150 mM pH 6.5 phosphate buffer/MeOH=80:20 (v/v), and the flow rate was 0.5 in L/min. The system was calibrated with HA standards supplied by Dr. O. Wik (Pharmacia). […] Cell viability in cell culture was determined by thiazoyl blue (MTT) dye uptake protocols measured at 540 nm, which was recorded on a BIO-RAD M-450 microplate reader (Hercules, Calif.). […] Fluorescence images were taken using FITC settings with the 488 nm excitation line and a 522 nm 32 bandpass filter was used to collect the images.
(§5) The cytotoxicity of HA-DOX and HPMA-HA-DOX conjugates against HBL-100, SKOV-3 and HCT-116 cells was determined using a 96-well plate format in quadruplicate with increasing doses range from 0.001-10 mg/mL of DOX equivalent. […] Thus, a 2-μL aliquot of the stock solution was added to each well, and cells were continuously incubated at 37° C., 5% CO2 for 3 days with the test substance, and cell viability was determined using MTT dye uptake at 540 nm. […]

[9] = system: HBL-100 human breast cancer cells; assay: In vitro cytotoxicity, MTT dye uptake; type: cell-based; settings: 72 h, HBL-100 cells, 3 days incubation, DOX equivalent
Protocol: as §3, §4, §5

[10] = system: SK-OV-3 human ovarian cancer cells; assay: In vitro cytotoxicity, MTT dye uptake; type: cell-based; settings: 72 h, SK-OV-3 cells, 3 days incubation, DOX equivalent
Protocol: as §3, §4, §5

CCN(CC)CCCC(C)Nc1ccnc2cc(Cl)ccc12 (stereo not shown) [chloroquine]
degradation of high MW 3H-HA by cells [1]: reduce the degraded ^3H-HA | degradation of high MW 3H-HA by cells ([2]; 48 hours, KM201 200 μg/ml or chloroquine 0.1 mM): reduce the degraded ^3H-HA | CD44 mediated degradation of 3H-HA ([2]; 72 hours): inhibited

chondroitin sulfate
up-take of HA in the major organs ([3]; chondroitin sulfate i.v. two hours before 3H-HA, 24 hours): reduced their up-take of HA | 3H-HA in tumors versus untreated mice ([3]; chondroitin sulfate pretreatment): higher | amount of 3H-HA in the liver versus vehicle alone ([3]; liver monitored for two days): much lower

CC(=O)O[C@H]1C(=O)[C@@]2(C)[C@H]([C@H](OC(=O)c3ccccc3)[C@]3(O)C[C@H](OC(=O)[C@H](O)[C@@H](NC(=O)c4ccccc4)c4ccccc4)C(C)=C1C3(C)C)[C@]1(OC(C)=O)CO[C@@H]1C[C@@H]2O [Taxol]
size of 4T1 tumors [4]: did not reduce the size | Inhibition ratio (%) ([5]; inguinal lymph node metastasis): 31.8% | Weight of lymph node ([5]; inguinal lymph node): 9.00 ± 0.79 | Inhibition ratio (%) ([5]; popliteal lymph node metastasis): −1.7% | Weight of lymph node ([5]; popliteal lymph node): 46.70 ± 5.05 | survival rate [6]: 60%

COc1cccc2c1C(=O)c1c(O)c3c(c(O)c1C2=O)C[C@@](O)(C(=O)CO)C[C@@H]3O[C@H]1C[C@H](N)[C@H](O)[C@H](C)O1 [DOX, Doxorubicin]
IC50 [7]: 31.5 µM | IC50 [8]: 0.35 µM | IC50 [9]: 0.15 µM | IC50 [10]: 0.92 µM
